Assay results as given in patent US20100184596A1, “METHOD FOR THE CONTROL OF WEEDS IN TURF” (SYNGENTA CROP PROTECTION, INC., priority 2007, published 2010).

Key:
Assay type in all cases: in vivo
[1] = test system: Trifolium repens (white clover); assay: Weed control of granule formulations, in St. Augustinegrass V. Delmar (Table B6.1)
Experimental: Two granule formulations were made and tested. Granule A is an inert granule formulation, comprising 99.06 wt % DG Lite 150 granules, 0.14 wt % compound of formula I, 0.50 wt % Sunspray 6N, and 0.30 wt % HiSil 233. The compound of formula I was added to the DG Lite granules while blending in a Continental Rollo-mixer.
Sunspray 6N oil was then sprayed onto the granules, and HiSil added to dry excess liquid and improve granule flowability. The granules were blended in the mixer for 20-30 minutes until homogeneous, and passed through a −12/+60 mesh to remove over and under sized particles.
Granule B is a fertiliser granule formulation, comprising 54.65 wt % urea, 6.63 wt % triple super phosphate, 4.95 wt % potassion chloride, 9.91 wt % huber clay, 7.22 wt % HiSil 233, 0.16 wt % compound of formula I, […] agnique ME 181, 2.07 wt % stepfac 8180, and 11.98 wt % water. […] The remaining HiSil was added and granules dried at 40-60° C., to remove excess liquid. Finally, the granules were passed through a −12/+60 mesh to remove over and under sized particles.
The weed control efficacy of the compound of formula I was tested. […] All treatments were watered-in 1 day after application. Percentage weed control assessments were taken at various timepoints.

Zoysiagrass v. Meyer = assay: Phytotoxicity via post emergence spray application (Table B2.2)
Experimental: The phytotoxicity of the compound of formula I to turfgrass species was tested. The compound was applied via post emergence spray to a range of warm and cool season turfgrass species at various rates and spray treatment treatment regimes. Percentage phytotoxicity assessments were taken at various timepoints.

Tall fescue = assay: Selective post-emergence herbicidal action, field trial Champaign (Table B1.1); details: 22 days after application
Experimental: (§1) The selectivity of the compound of formula I in turf (removal of grassy and broadleaf weeds) has been tested in turfgrass varieties selected from Kentucky bluegrass, tall fescue and perennial ryegrass and in […] selected from clover (an aggressive perennial weed) and dandelion (a weed of perennial horticultural crops and gardens which may also be a problem in some annual crops, particularly where reduced tillage is practiced).
(§2) The trials were conducted in Champaign, Ill., U.S. (Table B1.1) and Hudson, N.Y., U.S. (Table B1.2) under field conditions. Turfgrasses were maintained at approximately a 2.5″ height, like a home lawn. Mixed turf and weed stands were present. The test compounds were applied with a CO2 pressurized backpack sprayer by spraying in the form of an aqueous suspension (prepared from a wettable powder) in a concentration of 210 to 280 g/ha. The plots were then mowed and irrigated as needed. After 22 and 28 days respectively, the test is visually evaluated (100%=total damage to plant; 0%=no damage to plant).

Clover = assay: as above; details: 22 days after application
Experimental: as §1, §2

Kentucky blue grass = assay: as above; details: 22 days after application
Experimental: as §1, §2

Perennial ryegrass = assay: as above; details: 22 days after application
Experimental: as §1, §2

COCCOCc1nc(C(F)(F)F)ccc1C(=O)C1=C(O)C2CCC(C2)C1=O (stereo not drawn) [Formula I, 4-Hydroxy-3-[2-(2-methoxyethoxymethyl)-6-trifluoromethylpyridine-3-carbonyl]-bicyclo[3.2.1]oct-3-en-2-one]
% control ([1]; Granule A (inert), 112 g ai/ha, 7 DAT): 46.70% | % control ([1]; Granule A (inert), 112 g ai/ha, 11 DAT): 63.30% | % control ([1]; Granule A (inert), 112 g ai/ha, 15 DAT): 66.70% | % control ([1]; Granule A (inert), 112 g ai/ha, 20 DAT): 63.30% | % control ([1]; Granule A (inert), 112 g ai/ha, 28 DAT): 50.00% | % control ([1]; Granule A (inert), 280 g ai/ha, 7 DAT): 56.70% | % control ([1]; Granule A (inert), 280 g ai/ha, 11 DAT): 76.70% | % control ([1]; Granule A (inert), 280 g ai/ha, 15 DAT): 78.30% | % control ([1]; Granule A (inert), 280 g ai/ha, 20 DAT): 70.00% | % control ([1]; Granule A (inert), 280 g ai/ha, 28 DAT): 51.70% | % control ([1]; Granule B (fertiliser), 112 g ai/ha, 7 DAT): 53.30% | % control ([1]; Granule B (fertiliser), 112 g ai/ha, 11 DAT): 70.00% | % control ([1]; Granule B (fertiliser), 112 g ai/ha, 15 DAT): 76.70% | % control ([1]; Granule B (fertiliser), 112 g ai/ha, 20 DAT): 75.00% | % control ([1]; Granule B (fertiliser), 112 g ai/ha, 28 DAT): 70.00% | % control ([1]; Granule B (fertiliser), 280 g ai/ha, 7 DAT): 66.70% | % control ([1]; Granule B (fertiliser), 280 g ai/ha, 11 DAT): 80.00% | % control ([1]; Granule B (fertiliser), 280 g ai/ha, 15 DAT): 85.00% | % control ([1]; Granule B (fertiliser), 280 g ai/ha, 20 DAT): 88.30% | % control ([1]; Granule B (fertiliser), 280 g ai/ha, 28 DAT): 81.70% | % control ([1]; Spray, 112 g ai/ha, 7 DAT): 63.30% | % control ([1]; Spray, 112 g ai/ha, 11 DAT): 78.30% | % control ([1]; Spray, 112 g ai/ha, 15 DAT): 81.70% | % control ([1]; Spray, 112 g ai/ha, 20 DAT): 76.70% | % control ([1]; Spray, 112 g ai/ha, 28 DAT): 76.70% | % control ([1]; Spray, 280 g ai/ha, 7 DAT): 71.70% | % control ([1]; Spray, 280 g ai/ha, 11 DAT): 86.70% | % control ([1]; Spray, 280 g ai/ha, 15 DAT): 90.00% | % control ([1]; Spray, 280 g ai/ha, 20 DAT): 91.70% | % control ([1]; Spray, 280 g ai/ha, 28 DAT): 76.70% | % phytotoxicity (Zoysiagrass v. Meyer; 1 appl, 140 g ai/ha, 8 DAT): 42.50% | % phytotoxicity (Zoysiagrass v. Meyer; 1 appl, 140 g ai/ha, 14 DAT): 51.25% | % phytotoxicity (Zoysiagrass v. Meyer; 1 appl, 140 g ai/ha, 29 DAT): 41.25% | % phytotoxicity (Zoysiagrass v. Meyer; 1 appl, 140 g ai/ha, 35 DAT): 25.00% | % phytotoxicity (Zoysiagrass v. Meyer; 1 appl, 140 g ai/ha, 43 DAT): 7.50% | % phytotoxicity (Zoysiagrass v. Meyer; 1 appl, 140 g ai/ha, 51 DAT): 5.00% | % phytotoxicity (Zoysiagrass v. Meyer; 1 appl, 140 g ai/ha, 60 DAT): 0.00% | % phytotoxicity (Zoysiagrass v. Meyer; 1 appl, 280 g ai/ha, 8 DAT): 45.00% | % phytotoxicity (Zoysiagrass v. Meyer; 1 appl, 280 g ai/ha, 14 DAT): 57.50% | % phytotoxicity (Zoysiagrass v. Meyer; 1 appl, 280 g ai/ha, 29 DAT): 61.25% | % phytotoxicity (Zoysiagrass v. Meyer; 1 appl, 280 g ai/ha, 35 DAT): 28.75% | % phytotoxicity (Zoysiagrass v. Meyer; 1 appl, 280 g ai/ha, 43 DAT): 8.75% | % phytotoxicity (Zoysiagrass v. Meyer; 1 appl, 280 g ai/ha, 51 DAT): 3.75% | % phytotoxicity (Zoysiagrass v. Meyer; 1 appl, 280 g ai/ha, 60 DAT): 0.00% | % phytotoxicity (Zoysiagrass v. Meyer; 2 appl, 140 g ai/ha, 8 DAT): 33.75% | % phytotoxicity (Zoysiagrass v. Meyer; 2 appl, 140 g ai/ha, 14 DAT): 47.50% | % phytotoxicity (Zoysiagrass v. Meyer; 2 appl, 140 g ai/ha, 29 DAT): 17.50% | % phytotoxicity (Zoysiagrass v. Meyer; 2 appl, 140 g ai/ha, 35 DAT): 43.75% | % phytotoxicity (Zoysiagrass v. Meyer; 2 appl, 140 g ai/ha, 43 DAT): 27.50% | % phytotoxicity (Zoysiagrass v. Meyer; 2 appl, 140 g ai/ha, 51 DAT): 8.75% | % phytotoxicity (Zoysiagrass v. Meyer; 2 appl, 140 g ai/ha, 60 DAT): 0.00% | % phytotoxicity (Zoysiagrass v. Meyer; 2 appl, 280 g ai/ha, 8 DAT): 38.75% | % phytotoxicity (Zoysiagrass v. Meyer; 2 appl, 280 g ai/ha, 14 DAT): 57.50% | % phytotoxicity (Zoysiagrass v. Meyer; 2 appl, 280 g ai/ha, 29 DAT): 52.50% | % phytotoxicity (Zoysiagrass v. Meyer; 2 appl, 280 g ai/ha, 35 DAT): 47.50% | % phytotoxicity (Zoysiagrass v. Meyer; 2 appl, 280 g ai/ha, 43 DAT): 28.75% | % phytotoxicity (Zoysiagrass v. Meyer; 2 appl, 280 g ai/ha, 51 DAT): 12.50% | % phytotoxicity (Zoysiagrass v. Meyer; 2 appl, 280 g ai/ha, 60 DAT): 0.00% | % damage (Tall fescue; 210 g/ha): 0% | % damage (Tall fescue; 280 g/ha): 0% | % damage (Clover; 210 g/ha): 88% | % damage (Clover; 280 g/ha): 92% | % damage (Kentucky blue grass; 210 g/ha): 0% | % damage (Kentucky blue grass; 280 g/ha): 0% | % damage (Perennial ryegrass; 210 g/ha): 0% | % damage (Perennial ryegrass; 280 g/ha): 0%
